Assay results as given in patent US20240199542A1, “SUBSTITUTED PYRROLIDIN-2-ONES, SALTS THEREOF AND THEIR USE AS HERBICIDALLY ACTIVE SUBSTANCES” (Bayer Aktiengesellschaft, priority 2021, published 2024).

Legend:
Assay type in all cases: in vivo
[1] = system: Alopecurus myosuroides (ALOMY); experiment: Herbicidal pre-emergence action; details: 1280 g/ha, graded after ca. 3 weeks
Text: (§1) Seeds of mono- and dicotyledonous weed plants and crop plants were sown, in plastic or organic planting pots, in sandy loam and covered with soil. The compounds according to the invention, formulated in the form of wettable powders (WP) or as emulsifiable concentrates (EC), were applied to the surface of the covering soil as aqueous suspension or emulsion, with the addition of 0.5% of an additive, at an application rate of 600 1 of water/ha (converted).
(§2) Following treatment, the pots were placed in a greenhouse and kept under optimum growth conditions for the test plants. The visual grading of the damage to the test plants was carried out after ca. 3 weeks in comparison to untreated controls (herbicidal effect in percent (%): 100% effect=plants have died off, 0% effect=as control plants).
(§3) Tables A1 to A16, below, show the effects of selected compounds of the general formula (I) according to table 1 on various harmful plants and an application rate corresponding to 1280 g/ha or lower obtained by the experimental procedure mentioned above.

Avena fatua (AVEFA) [2] = experiment: Herbicidal pre-emergence action; details: graded after ca. 3 weeks
Text: as §1, §2, §3

Setaria viridis (SETVI) [3] = experiment: Herbicidal post-emergence action; details: 1280 g/ha, assessed after ca. 3 weeks
Text: (§4) Seeds of mono- and dicotyledonous weed plants and crop plants were sown, in plastic or organic planting pots, in sandy loam, covered with soil and grown in a greenhouse under controlled growth conditions. 2 to 3 weeks after sowing, the test plants were sprayed in the single-leaf stage. The compounds according to the invention, formulated in form of wettable powders (WP) or as emulsifiable concentrates (EC), were sprayed onto the green plant parts as aqueous suspension or emulsion, with the addition of 0.5% of an additive, at an application rate of 600 1 of water/ha (converted). The test plants were placed in the greenhouse for ca. 3 weeks under optimum growth conditions, and then the effect of the preparations was assessed visually in comparison with untreated controls (herbicidal effect in percent (%): 100% effect=plants have died off, 0% effect=as control plants).
(§5) Tables B1 to B16 below show the effects of selected compounds of the general formula (I) according to table 1 on various harmful plants and an application rate corresponding to 1280 g/ha or 320 g/ha obtained by the experimental procedure mentioned above.

[4] = system: Echinochloa crus-galli (ECHCG); experiment: Herbicidal post-emergence action; details: 1280 g/ha, assessed after ca. 3 weeks
Text: as §4, §5

[5] = system: Alopecurus myosuroides (ALOMY); experiment: Herbicidal post-emergence action; details: 1280 g/ha, assessed after ca. 3 weeks
Text: as §4, §5

Avena fatua (AVEFA) [6] = experiment: Herbicidal post-emergence action; details: 1280 g/ha, assessed after ca. 3 weeks
Text: as §4, §5

[7] = system: Lolium multiflorum (LOLMU); experiment: Herbicidal post-emergence action; details: 1280 g/ha, assessed after ca. 3 weeks
Text: as §4, §5

Setaria viridis (SETVI) [8] = experiment: Herbicidal pre-emergence action; details: 1280 g/ha, graded after ca. 3 weeks
Text: as §1, §2, §3

[9] = system: Echinochloa crus-galli (ECHCG); experiment: Herbicidal pre-emergence action; details: 1280 g/ha, graded after ca. 3 weeks
Text: as §1, §2, §3

[10] = system: Polygonum convolvulus (POLCO); experiment: Herbicidal pre-emergence action; details: graded after ca. 3 weeks
Text: as §1, §2, §3

[11] = system: Lolium multiflorum (LOLMU); experiment: Herbicidal pre-emergence action; details: 1280 g/ha, graded after ca. 3 weeks
Text: as §1, §2, §3

SMILES | Pre-emergence activity against ALOMY [1] [%] | Pre-emergence activity against AVEFA (Avena fatua (AVEFA) [2]; 1280 g/ha) [%] | Post-emergence activity against ECHCG [4] [%] | Post-emergence activity against AVEFA (Avena fatua (AVEFA) [6]) [%] | also measured
O=C(CC1CCC(=O)N1Cc1cccc(F)c1F)NC(Cc1c[nH]c2ccccc12)C(=O)O (mixture of isomers) [Example I-068] | 80 | 80 |  |  | 
CSCCOC(=O)CC1CCC(=O)N1Cc1cccc(F)c1F (racemic) [Example I-010] | 80 | 100 | 100 | 90 | Post-emergence activity against SETVI (Setaria viridis (SETVI) [3]): 90%; Post-emergence activity against ALOMY [5]: 80%; Post-emergence activity against LOLMU [7]: 90%
CC(C)OC(=O)CC1CCC(=O)N1Cc1cccc(F)c1F (racemic) [Example I-025] | 90 | 100 | 90 | 80 | Pre-emergence activity against SETVI (Setaria viridis (SETVI) [8]): 80%; Pre-emergence activity against ECHCG [9]: 90%; Pre-emergence activity against POLCO ([10]; 1280 g/ha): 80%; Pre-emergence activity against LOLMU [11]: 90%; Post-emergence activity against ALOMY [5]: 80%; Post-emergence activity against LOLMU [7]: 80%
O=C(CC1CCC(=O)N1Cc1cccc(F)c1F)OCC[S+]([O-])c1ccc(Cl)cc1 (racemic) [Example I-029] | 80 | 100 | 90 | 90 | Pre-emergence activity against SETVI (Setaria viridis (SETVI) [8]): 80%; Pre-emergence activity against ECHCG [9]: 90%; Pre-emergence activity against LOLMU [11]: 80%; Post-emergence activity against ALOMY [5]: 80%; Post-emergence activity against LOLMU [7]: 80%
O=C(CC1CCC(=O)N1Cc1cccc(F)c1F)OCCSc1ccc(Cl)cc1 (racemic) [Example I-038] |  |  | 90 |  | Post-emergence activity against SETVI (Setaria viridis (SETVI) [3]): 80%; Post-emergence activity against ALOMY [5]: 80%; Post-emergence activity against LOLMU [7]: 80%
O=C(CC1CCC(=O)N1Cc1cccc(F)c1F)NCCO (racemic) [Example I-049] | 90 | 100 |  |  | Pre-emergence activity against ECHCG [9]: 80%; Pre-emergence activity against POLCO ([10]; 1280 g/ha): 90%; Pre-emergence activity against LOLMU [11]: 80%; Post-emergence activity against ALOMY [5]: 80%
O=C(CC1CCC(=O)N1Cc1cccc(F)c1F)NS(=O)(=O)C(F)(F)F (racemic) [Example I-052] |  | 90 | 80 |  | Post-emergence activity against LOLMU [7]: 80%
COC(=O)CN(C)C(=O)CC1CCC(=O)N1Cc1cccc(F)c1F (racemic) [Example I-053] | 90 | 90 | 80 | 80 | Post-emergence activity against ALOMY [5]: 80%
CN(C)NC(=O)CC1CCC(=O)N1Cc1cccc(F)c1F (racemic) [Example I-058] | 90 | 100 | 80 | 80 | Pre-emergence activity against LOLMU [11]: 80%; Post-emergence activity against ALOMY [5]: 80%
C=CCNC(=O)CC1CCC(=O)N1Cc1cccc(F)c1F (racemic) [Example I-059] | 80 | 80 | 80 | 80 | 
O=C(CC1CCC(=O)N1Cc1cccc(F)c1F)NCCc1ccccc1 (racemic) [Example I-061] | 80 | 90 | 80 | 90 | Post-emergence activity against ALOMY [5]: 90%
CS(=O)(=O)NC(=O)CC1CCC(=O)N1Cc1cccc(Cl)c1F (racemic) [Example I-070] |  |  | 80 | 80 | 
CCS(=O)(=O)NC(=O)CC1CCC(=O)N1Cc1cccc(F)c1F (racemic) [Example I-072] |  | 80 | 80 | 80 | 
O=C(CC1CCC(=O)N1Cc1cccc(F)c1F)NS(=O)(=O)C(F)F (racemic) [Example I-074] |  |  | 80 |  | 
CC(C)S(=O)(=O)NC(=O)CC1CCC(=O)N1Cc1cccc(F)c1F (racemic) [Example I-076] |  | 80 |  | 80 | 
O=C(CC1CCC(=O)N1Cc1cccc(F)c1F)NCc1cccc2ncccc12 (racemic) [Example I-079] |  |  |  | 90 | 
COC(=O)CCNC(=O)CC1CCC(=O)N1Cc1cccc(F)c1F (racemic) [Example I-084] | 80 |  |  |  | 
CCn1ccc(CNC(=O)CC2CCC(=O)N2Cc2cccc(F)c2F)n1 (racemic) [Example I-085] |  |  |  | 90 | 
O=C(CC1CCC(=O)N1Cc1cccc(F)c1F)NS(=O)(=O)C1CC1 (racemic) [Example I-086] |  |  | 80 |  | 
COCCNC(=O)CC1CCC(=O)N1Cc1cccc(F)c1F (racemic) [Example I-091] | 90 |  |  |  | 
C#CCNC(=O)CC1CCC(=O)N1Cc1cccc(F)c1F (racemic) [Example I-092] |  | 80 |  |  | 
CCNC(=O)CC1CCC(=O)N1Cc1cccc(F)c1F (racemic) [Example I-098] |  |  |  | 80 | 
CN(C(=O)CC1CCC(=O)N1Cc1cccc(F)c1F)c1ccccc1 (racemic) [Example I-100] | 90 |  |  |  | 
CNC(=O)CC1CCC(=O)N1Cc1cccc(F)c1F (racemic) [Example I-104] |  |  |  |  | Pre-emergence activity against POLCO ([10]; 1280 g/ha): 90%
CC1(C)OC(=O)C(C(=O)CC2CCC(=O)N2Cc2cccc(F)c2F)C(=O)O1 (racemic) [Example I-186] |  |  | 80 |  | Pre-emergence activity against POLCO ([10]; 1280 g/ha): 100%
O=C(CC1CCC(=O)N1Cc1cccc(F)c1F)NN1CCCCC1 (racemic) [Example I-203] |  |  |  |  | Pre-emergence activity against POLCO ([10]; 320 g/ha): 80%; Pre-emergence activity against AVEFA (Avena fatua (AVEFA) [2]; 320 g/ha): 100%
CC[C@H](C)[C@H](NC(=O)CC1CCC(=O)N1Cc1cccc(F)c1F)C(=O)O (single isomer, unassigned) [Example I-011] | 80 | 90 | 80 | 90 | Pre-emergence activity against LOLMU [11]: 80%; Post-emergence activity against LOLMU [7]: 90%
COC(=O)[C@H](Cc1c[nH]cn1)NC(=O)CC1CCC(=O)N1Cc1cccc(F)c1F (single isomer, unassigned) [Example I-050] |  |  | 80 |  | 
O=C(O)CC1CCC(=O)N1Cc1c(F)ccc(F)c1F (stereo not drawn) [Example I-191, [5-Oxo-1-(2,3,6-trifluorobenzyl)pyrrolidin-2-yl]acetic acid] |  |  |  |  | Pre-emergence activity against AVEFA (Avena fatua (AVEFA) [2]; 320 g/ha): 100%
